According to PubChem BioAssay (NCI):
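Assay format: 96-well plates, 48-hour exposure. TGI: total growth inhibition.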

Legend:
Assay in all cases: inhibition of tumour cell growth, NCI panel, 48 h
[1] = test system: SR leukemia
[2] = test system: NCI-H460 lung
[3] = test system: KM12 colon
[4] = test system: SW-620 colon
[5] = test system: U251 CNS
[6] = test system: MDA-MB-231 breast
[7] = test system: K-562 leukemia
[8] = test system: 786-0 renal
[9] = test system: SK-MEL-5 melanoma
[10] = test system: NCI-H226 lung
[11] = test system: NCI/ADR-RES ovarian
[12] = test system: SN12C renal
[13] = test system: CCRF-CEM leukemia
[14] = test system: SNB-19 CNS
[15] = test system: MDA-MB-435
[16] = test system: SNB-75 CNS
[17] = test system: COLO 205 colon
[18] = test system: SK-MEL-2 melanoma
[19] = test system: DU-145 prostate
[20] = test system: HT29 colon
[21] = test system: MOLT-4 leukemia
[22] = test system: LOX IMVI melanoma
[23] = test system: OVCAR-3 ovarian
[24] = test system: RXF 393 renal
[25] = test system: M14 melanoma
[26] = test system: HOP-62 NSCLC
[27] = test system: SF-295 CNS
[28] = test system: HCC-2998 colon
[29] = test system: HCT-116 colon
[30] = test system: SK-MEL-28 melanoma
[31] = test system: SF-539 CNS
[32] = test system: HOP-92 NSCLC
[33] = test system: MDA-N
[34] = test system: UACC-257 melanoma
[35] = test system: MALME-3M melanoma
[36] = test system: A549 NSCLC
[37] = test system: HCT-15 colon
[38] = test system: CAKI-1 renal
[39] = test system: BT-549 breast
[40] = test system: UO-31 renal
[41] = test system: OVCAR-5 ovarian
[42] = test system: MCF7 breast
[43] = test system: NCI-H23 lung
[44] = test system: OVCAR-4 ovarian
[45] = test system: NCI-H522 lung
[46] = test system: A498 renal
[47] = test system: EKVX NSCLC
[48] = test system: HL-60(TB) leukemia
[49] = test system: OVCAR-8 ovarian
[50] = test system: SK-OV-3 ovarian
[51] = test system: PC-3 prostate
[52] = test system: ACHN renal
[53] = test system: RPMI-8226 leukemia
[54] = test system: UACC-62 melanoma
[55] = test system: TK-10 renal
[56] = test system: IGROV1 ovarian
[57] = test system: SF-268 CNS
[58] = test system: T-47D breast

## CC(CO)CCC(O)C(C)(O)C1CCC2(O)C3=CC(=O)C4CC(O)C(O)CC4(C)C3CCC12C (centres undefined)
[1]
  TGI: > 100 µM
[2]
  TGI: > 100 µM
[3]
  TGI: > 100 µM
[4]
  TGI: > 100 µM
[5]
  TGI: > 100 µM
[6]
  TGI: > 100 µM
[7]
  TGI: > 100 µM
[8]
  TGI: > 100 µM
[9]
  TGI: > 100 µM
[10]
  TGI: > 100 µM
[11]
  TGI: > 100 µM
[12]
  TGI: > 100 µM
[13]
  TGI: > 100 µM
[14]
  TGI: > 100 µM
[15]
  TGI: > 100 µM
[16]
  TGI: > 100 µM
[17]
  TGI: > 100 µM
[18]
  TGI: > 100 µM
[19]
  TGI: > 100 µM
[20]
  TGI: > 100 µM
[21]
  TGI: > 100 µM
[22]
  TGI: > 100 µM
[23]
  TGI: > 100 µM
[24]
  TGI: > 100 µM
[25]
  TGI: > 100 µM
[26]
  TGI: > 100 µM
[27]
  TGI: > 100 µM
[28]
  TGI: > 100 µM
[29]
  TGI: > 100 µM
[30]
  TGI: > 100 µM
[31]
  TGI: > 100 µM
[32]
  TGI: > 100 µM
[33]
  TGI: > 100 µM
[34]
  TGI: > 100 µM
[35]
  TGI: > 100 µM
[36]
  TGI: > 100 µM
[37]
  TGI: > 100 µM
[38]
  TGI: > 100 µM
[39]
  TGI: > 100 µM
[40]
  TGI: > 100 µM
[41]
  TGI: > 100 µM
[42]
  TGI: > 100 µM
[43]
  TGI: > 100 µM
[44]
  TGI: > 100 µM
[45]
  TGI: > 100 µM
[46]
  TGI: > 100 µM
[47]
  TGI: > 100 µM
[48]
  TGI: > 100 µM
[49]
  TGI: > 100 µM
[50]
  TGI: > 100 µM
[51]
  TGI: > 100 µM
[52]
  TGI: > 100 µM
[53]
  TGI: > 100 µM
[54]
  TGI: > 100 µM

## CCN(CC)c1ccc2cc(-c3nc4ccccc4n3C)c(=O)oc2c1
[1]
  TGI: > 100 µM
[2]
  TGI: 4.36 µM
[55]
  TGI: > 100 µM
[3]
  TGI: > 100 µM
[4]
  TGI: > 100 µM
[5]
  TGI: > 41.9 µM
[6]
  TGI: > 54.3 µM
[7]
  TGI: > 100 µM
[8]
  TGI: > 48.7 µM
[56]
  TGI: 4.79 µM
[9]
  TGI: 3.42 µM
[10]
  TGI: 1.46 µM
[11]
  TGI: 0.727 µM
[12]
  TGI: > 100 µM
[13]
  TGI: > 100 µM
[14]
  TGI: > 100 µM
[15]
  TGI: 0.334 µM
[18]
  TGI: 0.68 µM
[19]
  TGI: > 24.2 µM
[20]
  TGI: 11 µM
[21]
  TGI: > 100 µM
[22]
  TGI: > 100 µM
[24]
  TGI: 63.1 µM
[25]
  TGI: > 100 µM
[26]
  TGI: 29.8 µM
[27]
  TGI: > 100 µM
[29]
  TGI: > 100 µM
[31]
  TGI: 0.545 µM
[32]
  TGI: > 100 µM
[33]
  TGI: 0.135 µM
[57]
  TGI: > 100 µM
[34]
  TGI: > 100 µM
[36]
  TGI: > 100 µM
[37]
  TGI: > 100 µM
[38]
  TGI: > 100 µM
[39]
  TGI: 0.861 µM
[40]
  TGI: > 100 µM
[41]
  TGI: > 100 µM
[42]
  TGI: > 100 µM
[43]
  TGI: 29.3 µM
[44]
  TGI: > 100 µM
[45]
  TGI: 0.661 µM
[46]
  TGI: 0.187 µM
[58]
  TGI: > 100 µM
[48]
  TGI: > 100 µM
[49]
  TGI: > 100 µM
[50]
  TGI: 43.6 µM
[52]
  TGI: > 100 µM
[53]
  TGI: > 31.6 µM

## c1ccc(P2c3ccccc3Nc3ccccc32)cc1
[1]
  TGI: 49.4 µM
[2]
  TGI: > 100 µM
[55]
  TGI: > 100 µM
[3]
  TGI: > 100 µM
[4]
  TGI: > 100 µM
[5]
  TGI: > 100 µM
[6]
  TGI: > 100 µM
[7]
  TGI: > 100 µM
[8]
  TGI: > 100 µM
[56]
  TGI: > 100 µM
[9]
  TGI: 82.5 µM
[10]
  TGI: > 100 µM
[11]
  TGI: > 100 µM
[12]
  TGI: > 100 µM
[13]
  TGI: 72 µM
[14]
  TGI: > 100 µM
[15]
  TGI: > 100 µM
[16]
  TGI: 71 µM
[17]
  TGI: > 100 µM
[18]
  TGI: > 100 µM
[19]
  TGI: > 100 µM
[20]
  TGI: > 100 µM
[21]
  TGI: 58.7 µM
[22]
  TGI: > 100 µM
[23]
  TGI: 47.3 µM
[24]
  TGI: > 100 µM
[25]
  TGI: > 100 µM
[26]
  TGI: > 100 µM
[27]
  TGI: > 100 µM
[28]
  TGI: > 100 µM
[29]
  TGI: > 100 µM
[30]
  TGI: > 100 µM
[31]
  TGI: > 100 µM
[32]
  TGI: 97.4 µM
[33]
  TGI: > 100 µM
[57]
  TGI: > 100 µM
[34]
  TGI: > 100 µM
[35]
  TGI: > 100 µM
[36]
  TGI: > 100 µM
[37]
  TGI: > 100 µM
[38]
  TGI: > 100 µM
[40]
  TGI: > 100 µM
[41]
  TGI: > 100 µM
[42]
  TGI: > 100 µM
[43]
  TGI: > 100 µM
[44]
  TGI: > 100 µM
[45]
  TGI: > 100 µM
[46]
  TGI: 76.6 µM
[47]
  TGI: > 100 µM
[58]
  TGI: > 100 µM
[48]
  TGI: 55.8 µM
[49]
  TGI: > 100 µM
[50]
  TGI: > 100 µM
[51]
  TGI: 87.1 µM
[52]
  TGI: > 100 µM
[54]
  TGI: > 100 µM
